These results are taken from patent US20070293568A1, “Neurocyte Protective Agent” (priority 2006, published 2007).

Test [1] deals with mice, cerebral ischemia/reperfusion. The conditions noted are these: reperfusing after cerebral ischemia, astaxanthin administered; cited from earlier work.
For test [2], the system named is lipid peroxide in the blood. Particulars: cited from earlier work.
In test [3] the test system is TH positive cell specific MnSOD-deficient mice (KO mice). Put plainly: Body weight change of KO mice given YAX in the diet. In kind it is in vivo. Particulars: overall conclusion from body weight, life span and behavior in TH positive cell specific MnSOD-deficient mice. An excerpt: As genetically modified mice serving as models for neurodegeneration, in which MnSOD has been specifically deficient in dopamine cells of the substantia nigra and noradrenaline cells of the locus ceruleus in the central nervous system, tyrosine hydroxylase (TH) positive cell specific MnSOD-deficient mice were generated based on the method described in WO 2004/014131. Specifically, first, a homozygous MnSOD flox mouse (lox/lox, +/+) was mated with a TH-Cre transgenic mouse controlled by a TH (tyrosine hydroxylase) promoter, so that heterozygous mice (lox/w, Cre/+) having the TH-Cre transgene were generated. Then, the heterozygous mouse and a MnSOD flox mouse were mated to generate the TH positive cell specific MnSOD-deficient mice (lox/lox, Cre/+) of interest.
The YAX prepared in Preparation Example 2 was used as the astaxanthin, and this was administered with the diet. […] It should be noted that for comparison, the KO mice in the control group fed with an ordinary diet not containing YAX were monitored in the same manner.
The body weight was measured once a week, and a Student's t-test was performed. The life span was analyzed using the Kaplan-Meier method. […] The behavior was analyzed by the footprinting test. […] Specifically, ink is applied to the hind feet of the mice and the mice are allowed to walk, and the width of the footprints left behind is analyzed. […]

Regarding `CC1=C(/C=C/C(C)=C/C=C/C(C)=C/C=C/C=C(C)/C=C/C=C(C)/C=C/C2=C(C)C(=O)[C@@H](O)CC2(C)C)C(C)(C)C[C@H](O)C1=O` [astaxanthin], the “depression in motor ability” value in test [1] is listed as “suppressed”. For the same compound, in test [2], the “lipid peroxide in the blood” value is reported as “suppresses”. The neurocyte protective activity entry in test [3] was “powerful neurocyte protective activity”.
